We go through one compound from ChEMBL document CHEMBL3886253, “Imidazolidinones and analogs exhibiting anti-cancer and anti-proliferative activities” (2015).

Structures are written as SMILES.

Assay [1] concerns the target Vascular endothelial growth factor receptor 2 (Homo sapiens, UniProt P35968). Description: (§1) In Vitro Receptor Tyrosine Kinase Assay: These tests measure the ability of compounds to inhibit the enzymatic activity of recombinant human c-Met/HGF receptor and VEGF receptor enzymatic activity. A 1.3-kb cDNA corresponding to the intracellular domain of c-Met or c-Met IC (Genbank accession number NP000236-1 amino acid 1078 to 1337) is cloned into the BamHI/XhoI sites of the pBlueBacHis2A vector (Invitrogen) for the production of a histidine-tagged version of that enzyme. This construct is used to generate recombinant baculovirus using the Bac-N-Blue¿ system according to the manufacturer's instructions (Invitrogen). The c-Met IC protein is expressed in Hi-5 cells (Trichoplusia Ni) upon infection with recombinant baculovirus construct. Briefly, Hi-5 cells grown in suspension and maintained in serum-free medium (Sf900 II supplemented with gentamycin) at a cell density of about 2x10^6 cells/ml are infected with the above-mentioned viruses at a multiplicity of infection (MOI) of 0.2 during 72 hours at 27 C.

In assay [2] the target is Hepatocyte growth factor receptor (Homo sapiens, UniProt P08581). The assay is described as §1.
Assay [3] deals with Macrophage colony-stimulating factor 1 receptor (Homo sapiens, UniProt P07333). Nature of the assay: Enzymatic Assay: Activity of unphosphorylated c-FMS kinase (uFMS, Seq. ID no. 1) was determined by following the production of ADP from the FMS kinase reaction with ATP and poly E4Y as substrates through coupling with the pyruvate kinase/lactate dehydrogenase system (e.g., Schindler et al. Science (2000) 289: 1938-1942). In this assay, the oxidation of NADH (thus the decrease at A340 nm) was continuously monitored spectrophometrically. The reaction mixture (100 µL) contained FMS (purchased from Millipore) (10 nM), polyE4Y (1 mg/mL), MgCl2 (10 mM), pyruvate kinase (4 units), lactate dehydrogenase (0.7 units), phosphoenol pyruvate (1 mM), NADH (0.28 mM) and ATP (500 µM) in 90 mM Tris buffer containing 0.2% octyl-glucoside and 1% DMSO, pH 7.5. The inhibition reaction was started by mixing serial diluted test compound with the above reaction mixture. The absorption at 340 nm was monitored continuously for 4 hours at 30° C. on Synergy 2 plate reader.
Chain of Macrophage colony-stimulating factor 1 receptor (P07333 whole entry): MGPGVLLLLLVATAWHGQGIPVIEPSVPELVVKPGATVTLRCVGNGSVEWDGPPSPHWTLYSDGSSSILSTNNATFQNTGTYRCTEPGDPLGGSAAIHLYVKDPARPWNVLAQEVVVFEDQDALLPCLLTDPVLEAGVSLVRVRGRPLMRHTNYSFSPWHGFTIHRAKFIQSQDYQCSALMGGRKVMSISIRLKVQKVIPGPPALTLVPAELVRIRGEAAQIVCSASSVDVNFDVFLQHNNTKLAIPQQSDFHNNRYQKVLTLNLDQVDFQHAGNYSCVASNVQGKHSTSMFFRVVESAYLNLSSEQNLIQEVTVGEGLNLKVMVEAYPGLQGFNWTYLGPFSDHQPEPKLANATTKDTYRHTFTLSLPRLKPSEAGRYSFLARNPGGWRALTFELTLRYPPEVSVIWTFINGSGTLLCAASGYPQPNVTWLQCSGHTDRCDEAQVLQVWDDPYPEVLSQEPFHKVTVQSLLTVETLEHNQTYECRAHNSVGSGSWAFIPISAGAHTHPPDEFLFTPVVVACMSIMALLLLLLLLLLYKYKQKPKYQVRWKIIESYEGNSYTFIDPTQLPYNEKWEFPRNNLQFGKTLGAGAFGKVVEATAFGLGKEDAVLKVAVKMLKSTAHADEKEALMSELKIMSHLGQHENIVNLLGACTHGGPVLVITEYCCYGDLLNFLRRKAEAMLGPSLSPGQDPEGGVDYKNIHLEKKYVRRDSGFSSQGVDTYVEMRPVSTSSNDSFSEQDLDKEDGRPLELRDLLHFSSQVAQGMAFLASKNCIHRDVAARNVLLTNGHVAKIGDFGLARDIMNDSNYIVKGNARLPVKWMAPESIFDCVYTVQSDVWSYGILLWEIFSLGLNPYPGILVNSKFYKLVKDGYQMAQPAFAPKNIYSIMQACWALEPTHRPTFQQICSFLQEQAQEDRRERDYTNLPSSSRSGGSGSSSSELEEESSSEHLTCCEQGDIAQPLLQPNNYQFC

Chain of Hepatocyte growth factor receptor (P08581 whole entry): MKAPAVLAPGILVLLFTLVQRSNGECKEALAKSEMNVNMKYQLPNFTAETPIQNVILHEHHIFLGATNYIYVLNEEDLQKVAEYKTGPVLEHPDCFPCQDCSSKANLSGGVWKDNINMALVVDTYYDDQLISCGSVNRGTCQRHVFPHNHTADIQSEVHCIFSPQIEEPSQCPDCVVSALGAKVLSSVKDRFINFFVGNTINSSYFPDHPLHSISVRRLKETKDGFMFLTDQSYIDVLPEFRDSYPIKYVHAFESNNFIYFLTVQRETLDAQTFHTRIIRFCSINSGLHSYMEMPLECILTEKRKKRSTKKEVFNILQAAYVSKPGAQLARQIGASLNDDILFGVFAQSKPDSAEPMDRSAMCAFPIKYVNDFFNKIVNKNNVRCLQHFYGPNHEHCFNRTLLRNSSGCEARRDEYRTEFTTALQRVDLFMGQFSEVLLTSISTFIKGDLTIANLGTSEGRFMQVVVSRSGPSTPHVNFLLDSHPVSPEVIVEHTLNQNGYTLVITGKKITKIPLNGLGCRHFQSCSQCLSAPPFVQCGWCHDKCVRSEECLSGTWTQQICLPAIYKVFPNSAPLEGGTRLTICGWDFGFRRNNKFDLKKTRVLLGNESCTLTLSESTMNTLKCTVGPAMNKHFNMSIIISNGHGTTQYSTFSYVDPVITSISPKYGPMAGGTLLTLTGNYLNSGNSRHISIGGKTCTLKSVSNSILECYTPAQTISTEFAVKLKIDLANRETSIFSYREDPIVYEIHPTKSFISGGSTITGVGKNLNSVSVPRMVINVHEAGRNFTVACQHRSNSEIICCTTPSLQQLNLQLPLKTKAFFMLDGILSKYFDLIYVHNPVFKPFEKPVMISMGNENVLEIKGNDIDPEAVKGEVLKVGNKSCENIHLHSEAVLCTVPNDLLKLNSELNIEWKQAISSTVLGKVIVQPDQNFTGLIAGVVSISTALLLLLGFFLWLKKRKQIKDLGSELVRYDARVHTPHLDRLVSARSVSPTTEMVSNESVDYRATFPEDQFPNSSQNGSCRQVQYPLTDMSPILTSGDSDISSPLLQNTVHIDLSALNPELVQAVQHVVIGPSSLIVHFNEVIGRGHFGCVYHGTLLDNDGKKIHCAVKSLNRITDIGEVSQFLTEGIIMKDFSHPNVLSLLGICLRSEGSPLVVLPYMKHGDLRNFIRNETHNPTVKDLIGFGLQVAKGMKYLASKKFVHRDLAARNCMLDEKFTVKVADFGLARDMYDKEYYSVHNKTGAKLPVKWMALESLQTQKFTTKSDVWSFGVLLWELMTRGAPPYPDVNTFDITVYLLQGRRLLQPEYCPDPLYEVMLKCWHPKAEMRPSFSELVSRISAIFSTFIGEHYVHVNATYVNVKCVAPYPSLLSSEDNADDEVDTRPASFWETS
Chain of Vascular endothelial growth factor receptor 2 (P35968 whole entry, the tested form may be a part): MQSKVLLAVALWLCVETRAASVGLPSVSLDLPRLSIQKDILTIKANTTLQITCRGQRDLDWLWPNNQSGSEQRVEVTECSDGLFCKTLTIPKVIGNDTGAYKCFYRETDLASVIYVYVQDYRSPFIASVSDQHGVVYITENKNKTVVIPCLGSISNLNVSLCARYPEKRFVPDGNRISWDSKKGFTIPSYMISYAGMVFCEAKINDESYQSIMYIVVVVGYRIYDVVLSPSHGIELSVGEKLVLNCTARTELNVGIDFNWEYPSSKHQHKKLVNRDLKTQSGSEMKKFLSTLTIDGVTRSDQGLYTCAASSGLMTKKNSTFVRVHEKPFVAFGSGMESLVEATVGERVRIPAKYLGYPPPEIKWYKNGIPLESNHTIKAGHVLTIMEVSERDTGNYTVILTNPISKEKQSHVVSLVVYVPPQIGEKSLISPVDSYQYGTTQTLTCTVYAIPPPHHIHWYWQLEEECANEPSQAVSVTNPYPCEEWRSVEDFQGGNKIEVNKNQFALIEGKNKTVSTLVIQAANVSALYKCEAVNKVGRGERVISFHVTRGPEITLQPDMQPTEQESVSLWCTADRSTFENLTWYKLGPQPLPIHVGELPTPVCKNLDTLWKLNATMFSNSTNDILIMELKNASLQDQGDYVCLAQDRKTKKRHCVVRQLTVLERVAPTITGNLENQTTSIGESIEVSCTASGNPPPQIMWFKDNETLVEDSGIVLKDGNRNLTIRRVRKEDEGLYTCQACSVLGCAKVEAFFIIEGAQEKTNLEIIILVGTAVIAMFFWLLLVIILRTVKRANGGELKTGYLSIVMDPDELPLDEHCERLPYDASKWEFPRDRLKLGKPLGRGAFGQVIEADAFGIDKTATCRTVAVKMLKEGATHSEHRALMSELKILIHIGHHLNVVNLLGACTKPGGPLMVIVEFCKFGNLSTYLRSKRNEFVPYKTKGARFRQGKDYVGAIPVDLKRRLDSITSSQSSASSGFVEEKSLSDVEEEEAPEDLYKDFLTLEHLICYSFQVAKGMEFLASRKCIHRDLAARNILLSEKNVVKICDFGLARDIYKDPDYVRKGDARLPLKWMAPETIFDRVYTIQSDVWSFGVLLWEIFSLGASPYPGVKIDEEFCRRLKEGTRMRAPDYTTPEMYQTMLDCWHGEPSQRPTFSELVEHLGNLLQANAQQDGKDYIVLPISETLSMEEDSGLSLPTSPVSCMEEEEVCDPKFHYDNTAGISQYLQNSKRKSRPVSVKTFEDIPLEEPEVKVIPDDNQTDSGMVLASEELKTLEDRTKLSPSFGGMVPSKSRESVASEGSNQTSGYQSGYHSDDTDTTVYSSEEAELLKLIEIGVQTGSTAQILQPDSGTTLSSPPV

`Cn1cc(-c2cc(Oc3ccc(NC(=O)N4CCN(c5ccc(F)cc5)C4=O)nc3)ccn2)cn1`: the IC50 (commonly the concentration at which inhibition is half-maximal) is 990 nM in assay [1], 196 nM in assay [2] and 13 nM in assay [3].
